The subject of series [1] is TNF-α-induced L929 cell death. The experiment in a line: TNF-α neutralization test (TNF-α-induced cytotoxicity, MTT) on L929 cells. In kind it is cell-based, mouse. How it is done:
(§1) The TNF-α neutralizing activity of designed peptides and adalimumab molecules was compared with cell-based bioactivity assays. L929 cells were cultured in DMEM supplemented with 10% FBS and 1% P/S in a humidified 5% CO2 incubator at 37 °C [43].
(§2) In the TNF-α neutralization test, 3 × 10^4 cells in 100 μL were seeded into 96-well tissue culture plates and incubated at 37 °C in a 5% CO2 incubator for 24 ± 2 h. After incubation, cells were stimulated with 2 μg/mL actinomycin D and 1 ng/mL TNF-α in the presence of diluted concentrations of adalimumab and functional peptides ranging from 1 pM to 10 μM for 24 ± 2 h. […] TNF-α neutralizing activity was also examined by microscopy in a 24-well plate. Both the cytotoxicity effect and neutralizing activity of the OB1 peptide were visually examined by fluorescence microscopy (Zeiss AxioVert A, Oberkochen, Germany). OB1 and adalimumab were administered at a concentration of 1 μM with 1 ng/mL TNF-α.

The next series concerns the target rhTNF-α (Homo sapiens, UniProt P01375). The experiment in a line: Microscale thermophoresis (MST) binding to labeled rhTNF-α. The following applies: labeled rhTNF-α 20 nM, PBS, mean ± SD of three replicates. As for the experimental part: MST was performed using a Monolith NT.115 Pico instrument (NanoTemper Technologies, Munich, Germany). In this technique, thermophoresis applied by irradiation with an infrared (IR) laser diode disrupts a ligand-target binding interaction that has equilibrated. The concentration of fluorescent molecules can be altered by the direct movement of molecules within a temperature gradient. The effect on the fluorescence signal is monitored continuously over time.
Experiments were performed using the Monolith Protein Labeling Kit RED-NHS 2nd Generation and Monolith NT.115 Premium Capillaries at Pico-RED 80% excitation power and medium MST power with thermophoresis. Mixtures of labeled molecules and functional peptides or TNFR1 were prepared in PBS. Labeled molecules were maintained at 20 nM for the peptide binding experiments, and the ligand concentrations varied according to the molecule with 16 serial dilutions. The peptide-labeled molecule mixture was loaded into the glass capillaries after 20 min incubation in the dark. Results were analyzed using M.O. Affinity Analysis v.2.3 software.
For orientation: Microscale thermophoresis detects binding through changes in fluorescence in a small temperature gradient.

Series [2] has as its system L929 cells. In kind it is cell-based, mouse. The following applies: 1 μM with TNF-α (1 ng/mL) and actinomycin D, microscopy. As for the experimental part:
as §2

The next series addresses TNF-α. The following applies: peptide from T7 phage display library; cited from earlier work. An excerpt:
Peptide-based TNF-α inhibition has garnered attention in recent years, as studies have shown that peptides may help treat inflammatory diseases. In a study conducted in 2023, a nine amino acid-long peptide targeting TNF-α was discovered using a T7 phage display library. […] OB1 also attenuated TNF-α-induced cell death based on morphological examination (Figure 8). […] Thus, C87 is used as a positive control in many TNF-α inhibitor studies.

Series [3] concerns L929 cells. In words: MTT cytotoxicity of peptides on L929 cells. In kind it is cell-based, mouse. The note with it: at 10,000 nM (10 μM). As for the experimental part:
as §1
Cytotoxicity of peptides was determined using the 3-(4,5-dimethylthiazol-2-yl)-2,5 diphenyltetrazolium bromide (MTT) cell proliferation assay. Briefly, 3 × 10^4 cells in 100 μL were seeded into 96-well tissue culture plates and incubated at 37 °C in a 5% CO2 incubator for 24 ± 2 h. Peptide concentrations were diluted from 1 pM to 10 μM and measured in triplicate. The following kit protocol and absorbance were measured at 550 nm and 690 nm using a microplate reader (Gen5 Synergy HT BioTek, Winooski, VT, USA).

Read-outs that look alike come from different tables or passages of the source. Where no end group is shown, it is not given here.

rhTNF-α, sequence (P01375 77-233 limits assumed): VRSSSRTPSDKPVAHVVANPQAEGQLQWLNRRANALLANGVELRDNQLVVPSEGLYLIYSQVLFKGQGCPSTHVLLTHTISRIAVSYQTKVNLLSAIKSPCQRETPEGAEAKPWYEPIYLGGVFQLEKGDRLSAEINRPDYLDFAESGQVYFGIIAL

The term Kd denotes the equilibrium constant for the complex coming apart. Take KGGGSGGGSGGGSRKEMGQV-NH2 [OB2]: in series [1] (2 h, 10000 nM), the “survival rate in TNF-α neutralization” value is reported as ~80%. For the same substance, the Kd at rhTNF-α was determined as 46.7 nM.
As a reminder, the IC50 is the midpoint of a concentration-inhibition curve. A low value points to inhibition by little substance. As to KGGGSGGGSHIHDDLLRYYGW-NH2 [OB1], the “survival rate in TNF-α neutralization” value in series [1] (2 h, 10000 nM) was ~80%. In series [1] (mouse), this substance registered an IC50 of 4.6 nM. On rhTNF-α, this substance registered a Kd of 300 nM.
Adalimumab gave an IC50 in series [1] of 3.85 nM. In addition, the “survival rate in TNF-α neutralization” value in series [1] (L929 cells, 10,000 nM, 1 ng/mL TNF-α and actinomycin D) was ~80%. For the same substance, the “cell survival by morphology with TNF-α and actinomycin D” value in the series with L929 cells [2] is listed as “enhanced cell survival”. The same substance returned a Kd at rhTNF-α of 0.0211 ± 0.0036 nM.
For “ACHAWAPTR [pep2, nine amino acid-long peptide targeting TNF-α from a T7 phage display library]”, at TNF-α, the Kd is 5140 nM.
With KRWSRYFWVDMTGTR-NH2 [OB8], the “cytotoxicity (in words)” value with L929 cells [3] is “non-toxic”. At rhTNF-α, this substance gave a Kd of 3890 ± 4540 nM.

The values are drawn from paper PMC12024540, “Peptide-Based Regulation of TNF-α-Mediated Cytotoxicity” (Biomolecules, 2025).
